Measurements: ChEMBL document CHEMBL1148957, “Asmarines I, J, and K and nosyberkol: four new compounds from the marine sponge Raspailia sp” (2004)

Assays:
Type in all cases: functional
SK-OV-3 = experiment: Cytotoxicity against human SKOV3 cells after 72 hrs by SRB assay; details: SK-OV-3, 72 h
HT-29 = experiment: Cytotoxicity against human HT29 cells after 72 hrs by SRB assay; details: HT-29, 72 h
LoVo [1] = experiment: Cytotoxicity against human doxorubicin-resistant LoVo cells after 72 hrs by SRB assay
DU-145 = experiment: Cytotoxicity against human DU145 cells after 72 hrs by SRB assay; details: DU-145, 72 h
K562 = experiment: Cytotoxicity against human K562 cells after 72 hrs by SRB assay; details: K562, 72 h
A549 = experiment: Cytotoxicity against human A549 cells after 72 hrs by SRB assay; details: A549, 72 h
LNCaP = experiment: Cytotoxicity against human LNCAP cells after 72 hrs by SRB assay
PANC-1 = experiment: Cytotoxicity against human PANC1 cells after 72 hrs by SRB assay; details: PANC-1, 72 h
[2] = Cytotoxicity against human IGROV-ET cells after 72 hrs by SRB assay
SK-BR-3 = experiment: Cytotoxicity against human SK-BR-3 cells after 72 hrs by SRB assay; details: SK-BR-3, 72 h
[3] = Cytotoxicity against human IGROV cells after 72 hrs by SRB assay
LoVo [4] = experiment: Cytotoxicity against human LoVo cells after 72 hrs by SRB assay
SK-MEL-28 = experiment: Cytotoxicity against human SK-MEL-28 cells after 72 hrs by SRB assay; details: SK-MEL-28, 72 h

Measured: GI50

C=C1CCC[C@@H]2[C@@](C)(CC[C@@]3(C)CCn4cnc5ncnc(c54)N3)[C@H](C)CC[C@@]12C [ASMARINE K]
5 µM: all assays above

C[C@H]1CC[C@@]23C[C@]2(C)CCC[C@@H]3[C@@]1(C)CC[C@@]1(C)CCn2cnc3ncnc(c32)N1O [ASMARINE I]
5 µM: all assays above

C[C@H]1CC[C@@]23C[C@]2(C)CCC[C@@H]3[C@@]1(C)CC[C@@]1(C)CCn2cnc3ncnc(c32)N1 [ASMARINE J]
5 µM: all assays above
